# From patent US20110070213A1, “DERMAL COMPOSITIONS CONTAINING COENZYME Q AS THE ACTIVE INGREDIENT” (KANEKA CORPORATION, priority 2000, published 2011)
# Columns and labels:
# [1] = test system: incision wound; experiment: Incised wound healing test in rats; format: in vivo, SD rats; details: 1% ointment, 0.2 g/day for 4 days; four days after incision
# From the text: SD rats (male, 12-week-old) were clipped of hairs and divided into groups of 10 animals to make the mean body weights of the groups roughly the same, and subjected to the test. Each animal was given an incision wound along the median line under diethyl ether anesthesia. The incision wound was stapled at three sites using Michel's clips, and a 1% oxidized coenzyme Q10 ointment or a 1% reduced coenzyme Q10 ointment was applied at a dose of 0.2 g/day for 4 days. Two control groups, namely a nontreated group and an ointment base group treated with the same dose of the ointment base, were used. Three days after incision, the Michel's clips were removed and, four days after incision, each animal was euthanized by overanesthesia with diethyl ether, the skin around the incision was peeled off, and skin sections were prepared. The skin sections were measured for tension on a tensile tester.
# [2] = Percutaneous absorption test (coenzyme Q10 in skin after dermal application); format: in vivo, hairless rats; details: for Coenzyme Q10 concentration in skin / Reduced coenzyme Q10 concentration in skin: mean ± SD
# Method: The test sample 1 and comparative sample 1 were used as test substances. The test was carried out using male hairless rats (weighing 250 to 300 g) fed under well-fed conditions. A 0.1-g portion of the test sample 1, comparative sample 1, or PEG 1500 as a control was applied to an area of 3 cm square on the back of each hairless rat lightly anesthetized with ether. Three hours, 8 hours or 24 hours after application, the rat was sacrificed by euthanasia, the applied area was washed thoroughly, and a skin sample was taken. The skin sample was homogenized and extracted with propanol, the extract was concentrated using a solid phase column, and the amount of coenzyme Q10 in the skin was determined by high-performance liquid chromatography.
# Each of the skin samples mentioned above was homogenized and extracted with hexane, the extract was evaporated to dryness and dissolved in ethanol, and the proportion of reduced coenzyme Q10 in skin was determined by high-performance liquid chromatography with an electrochemical detector. Each numerical value means the mean±standard deviation.
# The test was carried out in the same manner as in Example 1 using the test samples 2, 3, 4 and 5 as well as the comparative sample 1 as test samples.
# In FIG. 1, the vertical axis denotes the total amount of coenzyme Q10 and the amount of reduced coenzyme Q10 in skin at 3 hours after application, and the horizontal axis denotes the content (% by weight) of reduced coenzyme Q10 relative to the total amount of coenzyme Q10 in the sample applied. Each bar indicates the mean value.
# [3] = as compared with 100% oxidized coenzyme Q10
Structure (SMILES),"Skin repair (tension of skin sections on a tensile tester, in words) [1]","Coenzyme Q10 concentration in skin, relative value in parentheses (oxidized coenzyme Q10 = 100) ([2]; 3 hr)","Reduced coenzyme Q10 concentration in skin, relative value in parentheses (oxidized coenzyme Q10 = 100) ([2]; 3 hr)",Coenzyme Q10 concentration in skin ([2]; 3 hr after application of 0.1 g PEG 1500 ointment (0.1 g coenzyme Q10 per 10 ml) to 3 cm square back skin) [µg/g],"Reduced coenzyme Q10 concentration in skin ([2]; 3 hr after application, HPLC with electrochemical detector) [µg/g]","Coenzyme Q10 concentration in skin, relative value in parentheses (oxidized coenzyme Q10 = 100) ([2]; 8 hr)","Reduced coenzyme Q10 concentration in skin, relative value in parentheses (oxidized coenzyme Q10 = 100) ([2]; 8 hr)",Coenzyme Q10 concentration in skin ([2]; 8 hr after application of 0.1 g PEG 1500 ointment to back skin) [µg/g],Reduced coenzyme Q10 concentration in skin ([2]; 8 hr after application) [µg/g],"Coenzyme Q10 concentration in skin, relative value in parentheses (oxidized coenzyme Q10 = 100) ([2]; 24 hr)","Reduced coenzyme Q10 concentration in skin, relative value in parentheses (oxidized coenzyme Q10 = 100) ([2]; 24 hr)",Coenzyme Q10 concentration in skin ([2]; 24 hr after application of 0.1 g PEG 1500 ointment to back skin) [µg/g],Reduced coenzyme Q10 concentration in skin ([2]; 24 hr after application) [µg/g],"Increase of the amount of coenzyme Q10 in skin (in words) [2, 3]","Increase of the amount of reduced coenzyme Q10 in skin (in words) [2, 3]"
"COc1c(O)c(C)c(C/C=C(\C)CC/C=C(\C)CC/C=C(\C)CC/C=C(\C)CC/C=C(\C)CC/C=C(\C)CC/C=C(\C)CC/C=C(\C)CC/C=C(\C)CCC=C(C)C)c(O)c1OC [Reduced coenzyme Q10, reduced coenzyme Q10]",skin repair promoting effect,(165***),(414***),13.72 ± 0.70,12.55 ± 0.51,(228*),(317**),17.96 ± 4.85,15.84 ± 4.56,(206*),(239*),15.68 ± 3.95,12.99 ± 4.81,very effective in increasing the amount of coenzyme Q10 in skin,very effective in increasing the amount of reduced coenzyme Q10 in skin
"COC1=C(OC)C(=O)C(C/C=C(\C)CC/C=C(\C)CC/C=C(\C)CC/C=C(\C)CC/C=C(\C)CC/C=C(\C)CC/C=C(\C)CC/C=C(\C)CC/C=C(\C)CCC=C(C)C)=C(C)C1=O [Oxidized coenzyme Q10, oxidized coenzyme Q10, reference compound]",skin repair promoting effect,–,–,–,–,–,–,–,–,–,–,–,–,–,–
